One test has as its system Pyricularia oryzae. Type of test: in vivo. The following applies: sprayed on host plants before inoculation.
Another test has as its system Cercospora beticola. The experiment in a line: In vivo fungicidal activity on host plants, Sugar Beet Cercospora (SBC). Further: ranges in brackets are in %. Particulars: sprayed on host plants before inoculation.
Another test has as its system Botrytis cinerea. Put plainly: In vivo fungicidal activity on host plants, Pepper Botrytis (PB). Particulars: sprayed on host plants before inoculation.
Test [1] deals with Erysiphe graminis f. sp. tritici. Put plainly: In vivo fungicidal activity on host plants, Wheat Powdery Mildew (WPM). The following applies: sprayed on host plants before inoculation.
The subject of another test is Pythium ultimum. Put plainly: In vitro fungicidal activity, growth inhibition of ground fungal mycelia (PYTHUL). In kind it is cell-based. Particulars: Globisporangium ultimum, 3-4 days at 21° C., averaged when more than one test, read-out: Growth inhibition rating, PYTHUL (converted). The protocol:
(§1) Test compounds are dissolved or suspended in acetone and dispersed into cell well plates containing a suspension of ground fungal mycelia in a nutrient broth. Assay plates are incubated for 3-4 days at 21° C. Growth inhibition is measured visually and is rated using the following scale:
(§2) Assay fungi include the plant pathogens, Pythium ultimum (Pythul); Rhizoctonia solani (Rhizso); Fusarium oxysporum f. sp. cucumerinum (Fusoxc); and Pseudocercosporella herpotrichoides (Psdche).
(§3) When more than one test is run, the data are averaged.

For test [2], the system named is Fusarium oxysporum f. sp. cucumerinum. Put plainly: In vitro fungicidal activity, growth inhibition of ground fungal mycelia (FUSOXC). In kind it is cell-based. Particulars: read-out: Growth inhibition rating, FUSOXC. How it is done: as §1, §2, §3
The test system of a further test is Venturia inaegualis. The experiment in a line: In vivo fungicidal activity on host plants, Apple Scab (AS). The following applies: sprayed on host plants before inoculation.
The subject of test [3] is Pseudocercosporella herpotrichoides. Put plainly: In vitro fungicidal activity, growth inhibition of ground fungal mycelia (PSDCHE). The following applies: Oculimacula yallundae, 3-4 days at 21° C., averaged when more than one test, read-out: Growth inhibition rating, PSDCHE (converted). In kind it is cell-based. The protocol: as §1, §2, §3
Another test concerns Rhizoctonia solani. The experiment in a line: In vitro fungicidal activity, growth inhibition of ground fungal mycelia (RHIZSO). Type of test: cell-based. The following applies: 3-4 days at 21° C., averaged when more than one test, read-out: Growth inhibition rating, RHIZSO. The protocol:
as §1, §2, §3

Another test deals with Plasmopara viticola. Put plainly: In vivo fungicidal activity on host plants, Grape Downy Mildew (GDM). The following applies: sprayed on host plants before inoculation.
Test [4] deals with Puccinia recondita f. sp. tritici. Put plainly: In vivo fungicidal activity on host plants, Wheat Leaf Rust (WLR). The following applies: 400 ppm; sprayed on host plants before inoculation.
Where [5] appears, read: 25 ppm, 3-4 days at 21° C., averaged when more than one test.

This is an account of results in US5480902A, “Thienylpyrrole fungicidal agents” (American Cyanamid Company, priority 1993, dated 1996).

Where two headings read alike, the source gives them in different places.

The inhibition is the change of the read-out against control, counted positive when it falls. With `N#Cc1c(-c2cccs2)[nH]c(C(F)(F)F)c1Cl` [Compound 12, 4-Chloro-2-(2-thienyl)-5-(trifluoromethyl)pyrrole-3-carbonitrile], the “Disease control rating, RB” value with Pyricularia oryzae (200 ppm) is listed as 0 (0). The “Disease control rating, SBC” value with Cercospora beticola (200 ppm) is given as 0 (0). Besides, the “Disease control rating, PB” value in the test on Botrytis cinerea (200 ppm) was 0 (0). In addition, the “Disease control rating, WPM” value in test [1] (200 ppm) is reported as 8 (96-99). In addition, the inhibition at 25 ppm in the test with Pythium ultimum is 90 to 99%; in [2] (setting [5]), 0%; in [3], 0%; in the test with Rhizoctonia solani, 90 to 99%. Further, in the test on Venturia inaegualis (200 ppm), the “Disease control rating, AS” value is recorded as 4 (45-59). For the same compound, the “Disease control rating, GDM” value in the test on Plasmopara viticola (200 ppm) was 8 (96-99).
With `CCOCn1c(-c2ccc(Br)o2)c(C#N)c(Br)c1C(F)(F)F` [Compound 22, 4-Bromo-2-(5-bromo-2-furyl)-1-(ethoxymethyl)-5-(trifluoromethyl)pyrrole-3-carbonitrile], the inhibition at 25 ppm (in the test with Pythium ultimum; in test [2] (setting [5]); in [3]; in the test on Rhizoctonia solani) was 0% in each case.
On to `N#Cc1c(-c2cc(Br)c(Br)s2)[nH]c(C(F)(F)F)c1Br` [Compound 21, 4-Bromo-2-(4,5-dibromo-2-thienyl)-5-(trifluoromethyl)pyrrole-3-carbonitrile], for which the inhibition at 25 ppm (in the test on Pythium ultimum; in test [2] (setting [5]); in [3]; in the test with Rhizoctonia solani) was 0% each time.
With `O=[N+]([O-])c1c(-c2ccc(Cl)cc2)[nH]c(C(F)(F)F)c1-c1csc(Br)c1Br` [Compound 10, 2-(p-Chlorophenyl)-4-(4,5-dibromo-3-thienyl)-3-nitro-5-(trifluoromethyl)pyrrole], the “Disease control rating, RB” value in the test with Pyricularia oryzae (400 ppm) was 7 (90-95). Also, in the test with Cercospora beticola (400 ppm), the “Disease control rating, SBC” value is given as 0 (0). Moreover, the “Disease control rating, PB” value in the test with Botrytis cinerea (400 ppm) was 0 (0). The “Disease control rating, WPM” value in test [1] (400 ppm) is reported as 4 (45-59). The inhibition at 25 ppm (in the test on Pythium ultimum; in test [3]) was 0% in each case. In addition, in the test on Venturia inaegualis (400 ppm), the “Disease control rating, AS” value was 0 (0). The “Disease control rating, GDM” value in the test with Plasmopara viticola (400 ppm) is reported as 7 (90-95).
Turning to `N#Cc1cc(C(F)(F)F)[nH]c1-c1ccco1` [Compound 11, 2-(2-Furyl)-5-(trifluoromethyl)pyrrole-3-carbonitrile], the “Disease control rating, RB” value with Pyricularia oryzae (200 ppm) was 0 (0). In the test with Cercospora beticola (200 ppm), the “Disease control rating, SBC” value is reported as 0 (0). Besides, the “Disease control rating, PB” value in the test on Botrytis cinerea (200 ppm) is on record as 0 (0). For the same compound, the inhibition at 25 ppm with Pythium ultimum was 90 to 99%; in test [2] (setting [5]), 0%; in [3] it was 0%. Besides, the “Disease control rating, AS” value with Venturia inaegualis (200 ppm) is 0 (0). In the test with Plasmopara viticola (200 ppm), the “Disease control rating, GDM” value is 0 (0).
Turning to `N#Cc1c(-c2ccc(Br)o2)[nH]c(C(F)(F)F)c1Br` [Compound 19, 4-Bromo-2-(5-bromo-2-furyl)-5-(trifluoromethyl)pyrrole-3-carbonitrile], the inhibition at 25 ppm (with Pythium ultimum; in test [2] (setting [5]); in test [3]; with Rhizoctonia solani) was 0% each time.
Consider `N#Cc1c(-c2ccc(Cl)s2)[nH]c(C(F)(F)F)c1Br` [Compound 17, 4-Bromo-2-(5-chloro-2-thienyl)-5-(trifluoromethyl)pyrrole-3-carbonitrile], for which the inhibition at 25 ppm in the test with Pythium ultimum is 30 to 59%; in test [2] (setting [5]) it was 0%; in test [3], 0%; in the test with Rhizoctonia solani, 60 to 89%.
With `O=[N+]([O-])c1ccc(-c2c(C(F)(F)F)[nH]c(-c3ccc(Cl)cc3)c2[N+](=O)[O-])s1` [Compound 5, 2-(p-Chlorophenyl)-3-nitro-4-(5-nitro-2-thienyl)-5-(trifluoromethyl)pyrrole], the “Disease control rating, RB” value with Pyricularia oryzae (400 ppm) is recorded as 0 (0). For the same compound, the “Disease control rating, PB” value with Botrytis cinerea (400 ppm) was 0 (0). Further, in [1] (400 ppm), the “Disease control rating, WPM” value was 0 (0). The inhibition at 25 ppm in [2] was 30 to 59%; in test [3], 60 to 89%; with Rhizoctonia solani, 90 to 99%. In the test on Venturia inaegualis (400 ppm), the “Disease control rating, AS” value is listed as 4 (45-59). The “Disease control rating, WLR” value in [4] is on record as 6 (75-89). The “Disease control rating, GDM” value in the test with Plasmopara viticola (400 ppm) was 9 (100).
Consider `CCOCn1c(-c2ccc(Cl)s2)c(C#N)c(Br)c1C(F)(F)F` [Compound 18, 4-Bromo-2-(5-chloro-2-thienyl)-1-(ethoxymethyl)-5-(trifluoromethyl)pyrrole-3-carbonitrile], for which the inhibition at 25 ppm in the test with Pythium ultimum is 0%; in test [2] (setting [5]), 0%; in [3], 0%; in the test with Rhizoctonia solani, 30 to 59%.
With `N#Cc1cc(C(F)(F)F)[nH]c1-c1ccc(Br)s1` [Compound 15, 2-(5-Bromo-2-thienyl)-5-(trifluoromethyl)pyrrole-3-carbonitrile], the inhibition at 25 ppm was 0% with Pythium ultimum, 0% in [2] (setting [5]), 0% in test [3] and 60 to 89% in the test with Rhizoctonia solani.
On to `CCOCn1c(-c2ccc(Br)s2)c(C#N)c(Br)c1C(F)(F)F` [Compound 13, 4-Bromo-2-(5-bromo-2-thienyl)-1-(ethoxymethyl)-5-(trifluoromethyl)pyrrole-3-carbonitrile], for which the “Disease control rating, RB” value with Pyricularia oryzae (200 ppm) is on record as 0 (0). In the test on Cercospora beticola (200 ppm), the “Disease control rating, SBC” value is 0 (0). The “Disease control rating, PB” value in the test with Botrytis cinerea (200 ppm) is recorded as 0 (0). Further, the “Disease control rating, WPM” value in [1] (200 ppm) is reported as 9 (100). The inhibition at 25 ppm is 0% in the test on Pythium ultimum, 0% in test [2] (setting [5]), 0% in [3] and 30 to 59% in the test on Rhizoctonia solani. Moreover, the “Disease control rating, AS” value in the test on Venturia inaegualis (200 ppm) is listed as 0 (0). Also, in the test with Plasmopara viticola (200 ppm), the “Disease control rating, GDM” value is recorded as 0 (0).
Take `N#Cc1cc(C(F)(F)F)[nH]c1-c1cc(Br)cs1` [Compound 20, 2-(4-Bromo-2-thienyl)-5-(trifluoromethyl)pyrrole-3-carbonitrile]: the inhibition at 25 ppm (in the test on Pythium ultimum; in [2] (setting [5]); in test [3]; in the test with Rhizoctonia solani) was 0% in each case.
Regarding `N#Cc1c(-c2ccc(Br)s2)[nH]c(C(F)(F)F)c1Br` [Compound 3, 4-Bromo-2-(5-bromo-2-thienyl)-5-(trifluoromethyl)pyrrole-3-carbonitrile], the “Disease control rating, RB” value in the test on Pyricularia oryzae (400 ppm) is reported as 0 (0). Further, the “Disease control rating, WPM” value in test [1] (400 ppm) was 7 (90-95). In addition, in the test on Venturia inaegualis (400 ppm), the “Disease control rating, AS” value was 9 (100). Also, in test [3], the inhibition at 25 ppm was 30 to 59%. For the same compound, the “Disease control rating, WLR” value in test [4] is 9 (100). Besides, the “Disease control rating, GDM” value in the test on Plasmopara viticola (400 ppm) is given as 9 (100).
Turning to `N#Cc1cc(C(F)(F)F)[nH]c1-c1ccc(Br)o1` [Compound 14, 2-(5-Bromo-2-furyl)-5-(trifluoromethyl)pyrrole-3-carbonitrile], the “Disease control rating, RB” value with Pyricularia oryzae (200 ppm) was 0 (0). Further, the “Disease control rating, SBC” value with Cercospora beticola (200 ppm) is given as 0 (0). Also, in the test on Botrytis cinerea (200 ppm), the “Disease control rating, PB” value is reported as 0 (0). Further, the “Disease control rating, WPM” value in test [1] (200 ppm) was 6 (75-89). Besides, the inhibition at 25 ppm in test [2] (setting [5]) is 0%; in test [3] it was 0%; with Rhizoctonia solani it was 30 to 59%. Also, the “Disease control rating, AS” value in the test on Venturia inaegualis (200 ppm) is reported as 0 (0). Also, the “Disease control rating, GDM” value in the test on Plasmopara viticola (200 ppm) is 6 (75-89).
On to `N#Cc1cc(C(F)(F)F)[nH]c1-c1ccc(Cl)s1` [Compound 16, 2-(5-Chloro-2-thienyl)-5-(trifluoromethyl)pyrrole-3-carbonitrile], for which the inhibition at 25 ppm is 0% with Pythium ultimum, 0% in [2] (setting [5]), 0% in test [3] and 60 to 89% in the test on Rhizoctonia solani.
